Data on four molecules can be found in patent US10029982B2, “Light absorptive compound, polymer composition containing the compound, polymer film, and cured layer” (Sumitomo Chemical Company, Limited, priority 2015, dated 2018).

Data set [1] can be described thus: Absorption measurement of the compound with spectrophotometer UV-3150. In kind it is physicochemical. Particulars: in 2-butanone. The text has this: The compound (I) preferably satisfies the following formula (a). ε(420)/ε(400)≤0.4 (a)
The smaller value offers a transparent compound with less yellowness.
Also, the compound (I) preferably satisfies the following formulae (b) and (c) in addition to the formula (a). λmax<420 nm (b) ε(400)≥40 (c)
In the formula (b), λmax denotes maximum absorption wavelength of the compound (I). In the formula (c), ε(400) denotes gram absorption coefficient at a wavelength of 400 nm, and the unit of gram absorption coefficient is defined by L/(g·cm). […]
A compound UVA-R01 was synthesized in accordance with the method described in Patent Literature (DE101 09 243 A1). Refinement was performed by subjecting the solution to column chromatography (silica gel). When absorption maximum wavelength (λmax) was measured by using a spectrophotometer UV-3150 (manufactured by SHIMADZU CORPORATION), the results were such that λmax=389 nm (in 2-butanone), ε(400) was 146 L/(g·cm), and ε(420)/ε(400) was 0.0122. Then, the following peaks were observed through ^1H-NMR analysis, so that it was confirmed that the compound UVA-R01 was produced.

The nature of data set [2]: Solubility test in various solvents. Conditions: room temperature 25±3° C., visually confirmed 60 minutes after preparation; for Solubility in various solvents MEK: 2-butanone; for Solubility in various solvents IPA: 2-propanol; for Solubility in various solvents CHF: chloroform; for Solubility in various solvents EAC: ethyl acetate; for Solubility in various solvents PGMEA: propylene glycol monomethyl ether acetate; for Solubility in various solvents TOL: toluene. In kind it is physicochemical. As for the experimental part: The compound UVA-01 (50 mg) obtained by the method described in Synthesis Example 1 was mixed with 450 mg of the solvent described below to prepare a 10% by mass solution. […] Also, 50 mg of UVA-01 was mixed with 950 mg of the solvent described below to prepare a 5% by mass solution, and the same solubility test was performed. The solubility of the compound UVA-01 was visually confirmed in 60 minutes after preparation of each solution. Incidentally, the criteria for evaluation of the test results are as follows.
A: soluble by 10% by mass or more
B: soluble by 5% by mass or more and less than 10% by mass
C: soluble by less than 5% by mass
2-butanone (manufactured by KANTO CHEMICAL CO., INC., hereinafter abbreviated as MEK) 2-propanol (manufactured by NACALAI TESQUE, INC., hereinafter abbreviated as IPA) toluene (manufactured by NACALAI TESQUE, INC., hereinafter abbreviated as TOL) ethyl acetate (manufactured by NACALAI TESQUE, INC., hereinafter abbreviated as EAC) chloroform (manufactured by KANTO CHEMICAL CO., INC., hereinafter abbreviated as CHF) propylene glycol monomethyl ether acetate (manufactured by Tokyo Chemical Industry Co., Ltd., hereinafter abbreviated as PGMEA) The solubility test was performed in the same manner as in Example 1 except for replacing UVA-01 with UVA-02 or UVA-03.
The solubility test was performed in the same manner as in Example 1 except for replacing UVA-01 with UVA-R01.

For the molecule `CCOCCOC(=O)/C(C#N)=C\C=C1/CCCN1C` [UVA-01], in data set [1], the “absorption maximum wavelength (λmax)” value was 389 nm; the “ε(400), gram absorption coefficient at a wavelength of 400 nm” value (shortened to “ε(400), gram absorption coefficient”) came to 125 L/g/cm; the “ε(420)/ε(400)” value is recorded as 0.0153. In data set [2], the “Solubility in various solvents MEK” value was “A (soluble by 10% by mass or more)”, the “Solubility in various solvents IPA” value is recorded as “A (soluble by 10% by mass or more)”, the “Solubility in various solvents CHF” value is given as “A (soluble by 10% by mass or more)” and the “Solubility in various solvents EAC” value was “A (soluble by 10% by mass or more)”. In addition, in data set [2], the “Solubility in various solvents PGMEA” value is “A (soluble by 10% by mass or more)” and the “Solubility in various solvents TOL” value is “A (soluble by 10% by mass or more)”.
Take `CCOC(=O)/C(C#N)=C\C=C1/CCCN1C` [UVA-R01, reference compound]: in data set [1], the “absorption maximum wavelength (λmax)” value is 389 nm; the “ε(400), gram absorption coefficient” value came out at 146 L/g/cm; the “ε(420)/ε(400)” value is given as 0.0122. Further, in data set [2], the “Solubility in various solvents MEK” value is reported as “C (soluble by less than 5% by mass)”, the “Solubility in various solvents IPA” value was “C (soluble by less than 5% by mass)”, the “Solubility in various solvents CHF” value is “C (soluble by less than 5% by mass)” and the “Solubility in various solvents EAC” value is “C (soluble by less than 5% by mass)”. In data set [2], the “Solubility in various solvents PGMEA” value is “C (soluble by less than 5% by mass)” and the “Solubility in various solvents TOL” value is “C (soluble by less than 5% by mass)”.
On to `COCCOCCOCCOC(=O)/C(C#N)=C\C=C1/CCCN1C` [UVA-02], for which, in data set [1], the “absorption maximum wavelength (λmax)” value was 388 nm; the “ε(400), gram absorption coefficient” value was determined as 95.2 L/g/cm; the “ε(420)/ε(400)” value worked out at 0.0161. In data set [2], the “Solubility in various solvents MEK” value is “A (soluble by 10% by mass or more)”, the “Solubility in various solvents IPA” value was “A (soluble by 10% by mass or more)”, the “Solubility in various solvents CHF” value is “A (soluble by 10% by mass or more)” and the “Solubility in various solvents EAC” value is “A (soluble by 10% by mass or more)”. Besides, in data set [2], the “Solubility in various solvents PGMEA” value is listed as “A (soluble by 10% by mass or more)” and the “Solubility in various solvents TOL” value was “A (soluble by 10% by mass or more)”.
As to `CCCCC(CC)COC(=O)/C(C#N)=C\C=C1/CCCN1C` (stereo not drawn) [UVA-03], in data set [1], the “absorption maximum wavelength (λmax)” value is recorded as 389 nm; the “ε(400), gram absorption coefficient” value was found to be 108 L/g/cm; the “ε(420)/ε(400)” value was found to be 0.0132. For the same molecule, in data set [2], the “Solubility in various solvents MEK” value is “A (soluble by 10% by mass or more)”, the “Solubility in various solvents IPA” value is “A (soluble by 10% by mass or more)”, the “Solubility in various solvents CHF” value is recorded as “A (soluble by 10% by mass or more)” and the “Solubility in various solvents EAC” value is given as “A (soluble by 10% by mass or more)”. Also, in data set [2], the “Solubility in various solvents PGMEA” value is “B (soluble by 5% by mass or more and less than 10% by mass)”; the “Solubility in various solvents TOL” value was “A (soluble by 10% by mass or more)”.
